This note sets out measurements from patent publication US6936285B1, “Use of Ginkgo biloba extracts for preparing a medicine” (Societe de Conseils de Recherches d'Application …, priority 1997, dated 2005).

The experiment relates to rats. Briefly: Behavioural sensitization to amphetamine (motor hyperactivity measured by actimetry). The following applies: amphetamine 0.5 mg/kg IP, ginkgolide A 5 mg/kg per day oral.

Structures are written as SMILES.

`C[C@@H]1C(=O)O[C@H]2C[C@@]34[C@H]5C[C@@H](C(C)(C)C)[C@]36[C@@H](OC(=O)[C@@H]6O)O[C@@]4(C(=O)O5)[C@]21O` [ginkgolide A]: the “behavioural sensitization to amphetamine” value is “reduced”.
